Data reported in publication PMC6030077, “Dual role of HDAC10 in lysosomal exocytosis and DNA repair promotes neuroblastoma chemoresistance” (Scientific Reports, 2018).

Experiments:
HDAC10 = biological target: T1, HDAC10 (Homo sapiens, UniProt Q969S8); test: In-cell target engagement (NanoBRET) assay, NanoLuc-HDAC10; type: binding
T1 construct: NanoLuc®-HDAC10 FL Fusion Vector; host or cells: HeLa cells, stably transfected
T1 sequence (Q969S8 1-669): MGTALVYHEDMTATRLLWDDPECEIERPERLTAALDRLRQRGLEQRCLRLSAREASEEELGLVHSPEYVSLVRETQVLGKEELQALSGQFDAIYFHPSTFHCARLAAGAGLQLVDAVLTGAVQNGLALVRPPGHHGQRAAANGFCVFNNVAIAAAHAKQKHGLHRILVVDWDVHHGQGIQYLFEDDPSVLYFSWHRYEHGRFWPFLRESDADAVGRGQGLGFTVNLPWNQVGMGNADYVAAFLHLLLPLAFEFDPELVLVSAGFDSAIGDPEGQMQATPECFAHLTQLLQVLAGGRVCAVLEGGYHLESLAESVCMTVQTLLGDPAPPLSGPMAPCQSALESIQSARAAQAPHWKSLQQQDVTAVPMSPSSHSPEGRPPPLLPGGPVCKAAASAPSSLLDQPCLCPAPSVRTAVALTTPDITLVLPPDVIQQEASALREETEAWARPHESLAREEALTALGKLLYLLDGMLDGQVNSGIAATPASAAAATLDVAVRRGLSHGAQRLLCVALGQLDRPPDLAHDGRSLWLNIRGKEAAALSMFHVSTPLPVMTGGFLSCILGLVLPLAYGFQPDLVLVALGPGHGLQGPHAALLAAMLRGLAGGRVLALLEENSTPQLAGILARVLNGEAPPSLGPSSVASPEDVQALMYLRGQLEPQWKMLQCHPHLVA
Text: We next investigated if accumulation of lysosomes was also affected by inhibition of HDAC6 and HDAC10, respectively. […] Since no bona fide downstream target protein of HDAC10 has been described to date, we performed an in-cell target engagement (NanoBRET) assay that measures competitive displacement of a fluorescently-labeled tracer from NanoLuc® Luciferase coupled HDAC10 enzyme. […] To exclude that lysosomal accumulation after treatment with HDAC6/10 inhibitors was caused by off-target inhibition of class I HDACs, we treated BE(2)-C cells with 1 mM class I HDAC inhibitor valproic acid (VPA).
(§1) HeLa cells, stabily transfected with NanoBRET plasmids NanoLuc®-HDAC6 FL Fusion Vector and NanoLuc®-HDAC10 FL Fusion Vector (Promega, Madison, WI, USA) were seeded at 20.000 cells/well in white 96 well plates. Without further incubation, tracer (0.3 µM) and drugs were added in separate steps and plates were placed in a tissue culture incubator for 2 h. For NanoBRET quantification, plates were put at room temperature for 10 minutes. Nanoglow substrate, diluted in OptiMEM without phenol red, was added and measured within 10 minutes in an OPTIMA plate reader (460 nm emission for donor and 610LP filter for acceptor). The BRET signal was calculated by the ratio of acceptor signal and donor signal.

HDAC6 [1] = biological target: T2, HDAC6 (Homo sapiens, UniProt Q9UBN7); test: In-cell target engagement (NanoBRET) assay, NanoLuc-HDAC6; type: binding; settings: HeLa cells stably transfected with NanoLuc-HDAC6, 2 h
T2 sequence (Q9UBN7 1-1215): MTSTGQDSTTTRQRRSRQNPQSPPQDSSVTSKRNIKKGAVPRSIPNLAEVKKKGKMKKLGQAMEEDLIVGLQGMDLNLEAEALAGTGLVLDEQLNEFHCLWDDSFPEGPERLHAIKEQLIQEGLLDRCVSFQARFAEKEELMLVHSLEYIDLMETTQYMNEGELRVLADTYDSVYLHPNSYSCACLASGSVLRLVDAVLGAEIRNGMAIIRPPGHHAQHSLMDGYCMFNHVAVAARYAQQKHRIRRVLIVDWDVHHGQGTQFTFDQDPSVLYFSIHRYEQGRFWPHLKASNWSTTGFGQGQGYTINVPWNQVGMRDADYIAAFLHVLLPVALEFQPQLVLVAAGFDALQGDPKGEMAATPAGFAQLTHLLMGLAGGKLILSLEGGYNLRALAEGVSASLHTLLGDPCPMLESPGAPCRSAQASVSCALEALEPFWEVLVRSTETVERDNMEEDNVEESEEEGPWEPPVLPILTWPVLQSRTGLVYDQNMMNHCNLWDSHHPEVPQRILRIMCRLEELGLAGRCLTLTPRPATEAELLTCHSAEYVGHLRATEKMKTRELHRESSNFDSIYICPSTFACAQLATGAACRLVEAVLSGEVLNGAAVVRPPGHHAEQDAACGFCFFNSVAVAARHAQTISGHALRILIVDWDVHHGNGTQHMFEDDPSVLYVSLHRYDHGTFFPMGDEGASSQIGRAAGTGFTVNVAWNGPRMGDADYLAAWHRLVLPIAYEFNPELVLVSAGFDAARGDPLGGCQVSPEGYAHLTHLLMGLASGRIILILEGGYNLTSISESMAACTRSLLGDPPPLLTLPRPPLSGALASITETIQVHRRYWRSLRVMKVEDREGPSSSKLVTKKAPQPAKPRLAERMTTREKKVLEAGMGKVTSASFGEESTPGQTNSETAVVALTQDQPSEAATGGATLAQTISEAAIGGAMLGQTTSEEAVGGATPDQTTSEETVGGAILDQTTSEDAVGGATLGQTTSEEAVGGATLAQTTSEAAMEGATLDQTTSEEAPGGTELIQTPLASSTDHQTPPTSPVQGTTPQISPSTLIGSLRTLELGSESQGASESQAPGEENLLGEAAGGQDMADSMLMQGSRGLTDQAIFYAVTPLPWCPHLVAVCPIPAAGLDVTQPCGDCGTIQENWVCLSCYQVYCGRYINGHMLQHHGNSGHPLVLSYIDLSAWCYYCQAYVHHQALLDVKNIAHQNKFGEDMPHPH
Protocol: as §1

BE(2)-C cells [2] = test: Flow cytometric analysis of LysoTracker DND-99 staining (lysosomal accumulation); type: cell-based, human; settings: 24 h treatment
Protocol: Six days after siRNA transfection or 24 h after treatment with HDAC or lysosomal inhibitors, cells were stained for 1 h with 50 nM LysoTracker® Red DND-99 in medium under standard cell culture conditions. Cells were washed with ice-cold RPMI w/o phenol-red and detached using Trypsin/EDTA for 3 minutes at 37 °C. Cells were centrifuged, resuspended in RPMI w/o phenol red and LysoTracker® Red fluorescence was quantified on a BD FACSCanto II platform using the PE filter setting.

HDAC6 [3] = test: Western blot analysis of tubulin K40 acetylation as a marker for HDAC6 inhibition; type: cell-based, human; settings: 24 h treatment
Protocol: Western blot analysis was performed as previously described. The following antibodies were used: anti-HDAC6 (sc-11420, Santa Cruz), anti-HDAC10 (H3413, Sigma), anti-acetylated histone H3 (06-911, Merck Millipore), anti-histone H3 (9715, Cell Signaling Technology, Cambridge UK), anti-LAMP-1 (H4A3, DHSB, Iowa City, IA, USA), anti-LAMP-2 (H4B4; Santa Cruz Biotechnology), anti-acetylated tubulin (6–11B-1; Sigma), anti-tubulin (2148, Cell Signaling Technology), anti P-glycoprotein (13978 S, Cell Signaling Technology) and anti-β-actin (clone AC-15; Sigma).

BE(2)-C cells [4] = test: Flow cytometric quantification of intracellular doxorubicin accumulation, BE(2)-C; type: cell-based, human; settings: 100 ng/ml doxorubicin, 24 h co-treatment
Protocol: For flow cytometric quantification of intracellular doxorubicin after HDAC6/10 inhibition, BE(2)-C, SK-N-AS, IMR-32, HAP1 wild type and HDAC10 knockout cells were seeded in 6-well dishes at a density of 1.5 ∗ 10^5 cells/well (BE(2)-C and SK-N-AS, HAP1) and 3 ∗ 10^5 cells/well (IMR-32). Cells were treated with 25 ng/ml, 50 ng/ml, 100 ng/ml or 1 µg/ml doxorubicin, respectively, for 3–48 h (see respective figure legend). Where indicated, cells were co-treated with HDAC6/10 or lysosomal inhibitors. In case of co-treatment with vacuolin-1, vacuolin-1 was directly added to cells under doxorubicin treatment 1 h or 24 h prior to analysis. Flow cytometric quantification of intracellular doxorubicin after HDAC6, HDAC10 or P-glycoprotein knockdown in BE(2)-C cells was performed 5 days (P-glycoprotein) or 6 days (HDAC6/10) after transfection with siRNA. To that end, cells were seeded 3–4 days after transfection into 6-well dishes at 1.5 ∗ 10^5 cells per well and treated with 100 ng/ml doxorubicin +/− HDAC6/10 and lysosomal inhibitors for the last 24 h. After doxorubicin treatment, BE(2)-C, SK-N-AS, IMR-32 and HAP1 cells were washed with ice-cold RPMI w/o phenol-red and detached using Trypsin/EDTA for 3 minutes at 37 °C. Cells were centrifuged, resuspended in RPMI w/o phenol red and doxorubicin fluorescence was quantified on a BD FACSCanto II platform using the PE filter setting.

- concentrations at which HDAC10 is inhibited (NanoBRET) (HDAC10): above 150 nM
- IC50 (HDAC10; HeLa cells stably transfected with NanoLuc-HDAC10, 2 h): 564 nM
- IC50 (HDAC6 [1]): 2.21 nM
- EC50 (BE(2)-C cells [2]; read-out: LysoTracker staining EC50): 6.6 µM
SMILES: CN1C(=O)C2CN(Cc3c2c2ccccc2n3Cc2ccc(C(=O)NO)cc2)C1=O (stereo not shown) [Marbostat-100]
- concentrations at which LysoTracker staining is increased (BE(2)-C cells [2]): above 1 µM
- concentrations inducing tubulin acetylation (HDAC6 [3]): ≥ 50 nM
- concentrations at which intracellular doxorubicin levels are increased (BE(2)-C cells [4]): ≥ 5 µM
